# Test results: PMC10005185, “Structure-guided engineering of a receptor-agonist pair for inducible activation of the ABA adaptive response to drought” (Science Advances, 2023)
# Where two headings read alike, the source gives them in different places.
# Key:
# [1] = tested on: Arabidopsis thaliana seedlings (WT Col-0, overexpressing lines, receptor mutants); conditions: pyr1 pyl1 double mutant ref 36; cited from earlier work
# [2] = tested on: Arabidopsis thaliana seeds (WT Col-0, CsPYL1 and CsPYL1^5m lines); assay: Seed germination assay; type: in vivo; conditions: Arabidopsis thaliana
# Experimental: For seed germination assays, seeds were stratified in the dark at 4°C for 3 days. Approximately 100 seeds of each genotype were sown on MS plates supplemented with six different ligand concentrations. The experiments were repeated three times. To score seed germination, radical emergence was analyzed at 24 hours after sowing.
# [3] = tested on: Arabidopsis thaliana seedlings; assay: Root growth assay; type: in vivo; conditions: 10 μM
# Experimental: Seedlings were grown on vertically oriented Murashige and Skoog (MS) plates for 4 to 5 days. Afterward, seedlings were transferred to MS supplemented with the indicated concentrations of the different ligands and kept on vertical orientation. Ten days later, the plates were scanned on a flatbed scanner to produce image files suitable for quantitative analysis of root growth using the NIH Image software ImageJ. The experiment was performed in triplicate (n = 13 to 16). Statistical comparisons were performed by either pairwise t tests or one-way ANOVA using GraphPad Prism 9.
# [4] = tested on: Arabidopsis thaliana plants (WT Col-0, CsPYL1^5m lines); assay: Whole-plant gas exchange, stomatal conductance (Gs); type: in vivo
# Experimental: A. thaliana seeds were planted in specific gas exchange pots, where above- and below-ground parts can be separated by glass into 2:1 (v:v) peat:vermiculite mixture. The plants were grown in growth chambers (Snijders Scientific, Drogenbos, Belgium) at 12/12 photoperiod, 23/18°C temperature, 160 μmol m^−2 s^−1 light, and 70% relative humidity and were 23 to 28 days old during gas exchange experiments. Whole-rosette stomatal conductances were recorded with an eight-chamber custom-built temperature-controlled gas exchange device as described before ([72]). Plants were inserted into the measurement cuvettes and allowed to stabilize at standard conditions: ambient CO2, ~420 ppm; air temperature, 24° ± 0.5°C; light, 160 μmol m^−2 s^−1; relative air humidity, 66 ± 3%. For sprayings, plants were removed from gas exchange cuvettes, sprayed with respective solutions, and put back into the cuvettes for stomatal conductance recordings for 56 min. To check the long-term effect of compounds on plants, stomatal conductance measurements were performed about 24 and 48 hours after sprayings. In the meantime, plants were kept in growth chambers as described above. Photographs of plants were taken after the experiment, and leaf rosette area was calculated using ImageJ 1.37v [National Institutes of Health (NIH), USA]. Stomatal conductance for water vapor was calculated with a custom-written program as described ([72]).
# [5] = tested on: Arabidopsis thaliana plants; assay: IR thermography of leaf temperature, arabidopsis; type: in vivo; conditions: transgenic CsPYL1^5m lines and Col-0, 50 μM, 24 hours after spraying
# Experimental: A. thaliana plants were grown in a controlled environment growth chamber at 21°/19°C under 8-hour light/16-hour dark photoperiod at 100 μE m^−2 s^−1. IR thermography images of rosette leaves were acquired with a thermal camera FLIR E95 equipped with a 42° lens, 24 hours after spraying 6-week-old plants with 10 mM MES (pH 5.7) + 0.02% Silwet L-77 plus 50 μM ligand or 0.1% DMSO as a control. Images were processed and quantified with the FLIR tools software. The average temperature of 15 different sections taken from four to six leaves per plant was used for quantification. At least six plants per genotype were analyzed, and the experiments were repeated twice. Statistical analysis was performed using GraphPad Prism 9. T test or ANOVA analysis was carried out to identify statistical significance among datasets.
# [6] = tested on: Nicotiana benthamiana WT plants; assay: IR thermography of leaf temperature, N. benthamiana; type: in vivo; conditions: nontransformed leaves, 24 hours after spraying, 50 μM ABA or 100 μM iSB07 or iSB09, compared to mock
# Experimental: IR images were taken using a FLIR […] thermocamera 1 day after the treatment (for N. benthamiana) or 2 and 5 days (for S. lycopersicum). Quantification was performed using the FLIR tools software on fully expanded leaves by analyzing 10 sections per leaf. At least six plants per genotype and treatment were analyzed in each experiment. Experiments were repeated twice. The average plant temperature ± SD of all the plants for each treatment and genotype was calculated and used to report the increase in temperature produced by each treatment. Statistical comparisons among genotypes were performed by either pairwise t tests or one-way ANOVA.
# [7] = tested on: MAPKKK18 promoter-LUC reporter; assay: pMAPKKK18-LUC luciferase reporter assay; type: in vivo, Arabidopsis thaliana; conditions: 100 μM, 6 hours
# Experimental: […]18-LUC seedlings were grown in 24-well plates (25 to 35 seeds per well) filled with 1 ml of liquid MS medium for 7 days. MS medium was replaced with fresh medium supplemented with 100 μM D-luciferin, potassium salt (GoldBio), and the indicated treatments with iSB07, iSB09, or ABA. Seedlings were incubated for 6 hours, and luminescence was recorded with a LAS-3000 imager (Fujifilm) equipped with a charge-coupled device camera using 2-min exposures. Eight-bit images were transformed in rainbow false color and quantified using Fiji. The experiment was repeated at least twice.
# AtHAB1ΔN with CsPYL1^5m = assay: PP2C inhibition assay, HAB1 with CsPYL1^5m; type: biochemical, Citrus sinensis (CsPYL1^5m); Arabidopsis thaliana (HAB1)
# Experimental: His-tagged receptors and phosphatases were purified using nickel–nitrilotriacetic acid (Ni-NTA) affinity chromatography. Protein integrity was analyzed by SDS–polyacrylamide gel electrophoresis, followed by InstantBlue staining. Phosphatase activity was measured using p-Nitrophenyl Phosphate (pNPP) (25 mM) as substrate, 10 mM MnCl2,1 μM PP2C, and 2 μM of the indicated receptors. […] Assays were repeated twice. For dose-response experiments, IC50 values were obtained with GraphPad Prism 9 using a nonlinear regression curve fit. Each ligand concentration was tested in triplicate. Phosphatase activity of ABI1 was measured using RRA(phosphoT)VA peptide as a substrate, as described ([27]).
# ABI1 with AtPYL1 = molecular target: T1, ABI1 with AtPYL1 (Arabidopsis thaliana, UniProt Q8VZS8); assay: PP2C inhibition assay, ABI1 with AtPYL1; type: biochemical
# T1 construct: His; made in house
# Experimental: (§1) His-tagged receptors and phosphatases were purified using nickel–nitrilotriacetic acid (Ni-NTA) affinity chromatography. Protein integrity was analyzed by SDS–polyacrylamide gel electrophoresis, followed by InstantBlue staining. Phosphatase activity was measured using p-Nitrophenyl Phosphate (pNPP) (25 mM) as substrate, 10 mM MnCl2,1 μM PP2C, and 2 μM of the indicated receptors. Proteins were incubated with the ligands for 10 min at room temperature. pNPP was then added to start the reactions, and the absorbance at 405 nm was monitored for 20 min in a ViktorX5 plate reader. Assays were repeated twice. For dose-response experiments, IC50 values were obtained with GraphPad Prism 9 using a nonlinear regression curve fit. Each ligand concentration was tested in triplicate. Phosphatase activity of ABI1 was measured using RRA(phosphoT)VA peptide as a substrate, as described ([27]). […]
# (§2) (D) Dose response analysis of iSB09 or ABA-dependent inhibition of ABI1 (blue and black lines, respectively) in presence of either AtPYL1 or AtPYR1. Values (average of duplicates) show PP2C activity after incubation with the indicated concentration of ligand and receptor at 1:2 ratio (1 µM phosphatase:2 µM receptor). […]
# (§3) whereas with AtPYR1 was 200 nM and 213 nM, for ABA and iSB09, respectively. Ligands were assayed
# ABI1 with AtPYR1 = molecular target: T2, ABI1 with AtPYR1 (Arabidopsis thaliana, UniProt O49686); assay: PP2C inhibition assay, ABI1 with AtPYR1; type: biochemical
# T2 construct: His; made in house
# Experimental: as §1, §2, §3
# AtPYL5:ΔNHAB1 = AtPYL5:ΔNHAB1 (Arabidopsis thaliana, UniProt Q9FLB1); assay: Native red electrophoresis of ligand-induced ternary complex
# Experimental: Electrophoresis was performed at a constant current of 25 mA for 150 min at 4°C. Proteins were detected in gel by InstantBlue staining, and band quantification was performed using the ImageJ software. To obtain apparent Kd values, the proportion of ternary complex formed (fraction bound) and the ABA or iSB09 free concentration in each lane were calculated and plotted as represented in Fig. 3 (E and F). Then, the dose-response curves were fitted to the classical Hill equation using the GraphPad Prism software.
# HAB1 with AtPYL4 = molecular target: T3, HAB1 with AtPYL4 (Arabidopsis thaliana, UniProt O80920); assay: PP2C inhibition assay, HAB1 with AtPYL4; type: biochemical; conditions: 1 µM phosphatase:2 µM receptor
# T3 construct: His; made in house
# Experimental: His-tagged receptors and phosphatases were purified using nickel–nitrilotriacetic acid (Ni-NTA) affinity chromatography. Protein integrity was analyzed by SDS–polyacrylamide gel electrophoresis, followed by InstantBlue staining. Phosphatase activity was measured using p-Nitrophenyl Phosphate (pNPP) (25 mM) as substrate, 10 mM MnCl2,1 μM PP2C, and 2 μM of the indicated receptors. Proteins were incubated with the ligands for 10 min at room temperature. pNPP was then added to start the reactions, and the absorbance at 405 nm was monitored for 20 min in a ViktorX5 plate reader. Assays were repeated twice. For dose-response experiments, IC50 values were obtained with GraphPad Prism 9 using a nonlinear regression curve fit. Each ligand concentration was tested in triplicate. Phosphatase activity of ABI1 was measured using RRA(phosphoT)VA peptide as a substrate, as described ([27]).
# (§4) Fig. S6. QB lacks bioactivity in tomato whereas iSB09 is
# (§5) (A) Quantification of the leaf temperature difference at 2 and 5 days after spraying tomato plants with 0.1 % DMSO
# (§6) (mock- treated control), 10 µM iSB09 or 10 µM QB.
# Asterisk indicates p<0.001 (Student’s t test). Values show individual points and average ± SD (n=4 replicates for mock and chemical treatments). (B) IR-images of representative tomato plants at 2 days after being treated with 0.1 % DMSO […]
# tomato plants = assay: IR thermography of leaf temperature, tomato; type: in vivo, Solanum lycopersicum; conditions: 10 μM, 2 and 5 days after spraying
# Experimental: For experiments using N. benthamiana or S. lycopersium, 1-month-old plants grown under long-day conditions (16-hour light/8-hour dark) were sprayed with 10 mM MES (pH 5.7) + 0.02% Silwet L77 supplemented with either 50 μM ABA, or the indicated concentration of iSB07/iSB09 or 0.1% DMSO as a mock-treated control. IR images were taken using a FLIR E95 thermocamera 1 day after the treatment (for N. benthamiana) or 2 and 5 days (for S. lycopersicum). Quantification was performed using the FLIR tools software on fully expanded leaves by analyzing 10 sections per leaf. At least six plants per genotype and treatment were analyzed in each experiment. Experiments were repeated twice. The average plant temperature ± SD of all the plants for each treatment and genotype was calculated and used to report the increase in temperature produced by each treatment. Statistical comparisons among genotypes were performed by either pairwise t tests or one-way ANOVA.
# as §4, §5, §6
# Asterisk indicates p<0.001 (Student’s t test). Values show individual points and average ± SD (n=4 replicates for mock and chemical treatments). (B) IR-images of representative tomato plants at 2 days after being treated with 0.1 % DMSO
# Photographs were taken with white light (leaf panel) or infrared thermography (right panel) using the camera FLIR
# HAB1 phosphatase activity in presence of PYL4. IC50 values for iSB09 or QB-dependent inhibition of HAB1 by AtPYL4. Values (average of duplicates) show PP2C activity after incubation with the indicated concentration of ligand and AtPYL4 at 1:2 ratio (1 µM phosphatase:2 µM receptor).
# (1 picture or pasted object on this page, not shown here)
# ΔNHAB1 with AtPYL1 = molecular target: T4, ΔNHAB1 with AtPYL1 (Arabidopsis thaliana, UniProt Q8VZS8); conditions: AtPYL1 ref 45; cited from earlier work
# T4 construct: His; made in house
# ΔNHAB1 with AtPYL10 = molecular target: T5, ΔNHAB1 with AtPYL10 (Arabidopsis thaliana, UniProt Q8H1R0); conditions: AtPYL10 ref 45; cited from earlier work
# T5 construct: His; made in house
# T5 sequence (Q8H1R0 whole entry, stated change not applied): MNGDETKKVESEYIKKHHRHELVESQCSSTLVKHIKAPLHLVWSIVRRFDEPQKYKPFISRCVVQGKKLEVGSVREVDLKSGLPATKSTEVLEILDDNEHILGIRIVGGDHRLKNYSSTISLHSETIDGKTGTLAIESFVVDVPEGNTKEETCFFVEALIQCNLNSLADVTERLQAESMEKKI
# T4 sequence (Q8VZS8 whole entry, stated change not applied): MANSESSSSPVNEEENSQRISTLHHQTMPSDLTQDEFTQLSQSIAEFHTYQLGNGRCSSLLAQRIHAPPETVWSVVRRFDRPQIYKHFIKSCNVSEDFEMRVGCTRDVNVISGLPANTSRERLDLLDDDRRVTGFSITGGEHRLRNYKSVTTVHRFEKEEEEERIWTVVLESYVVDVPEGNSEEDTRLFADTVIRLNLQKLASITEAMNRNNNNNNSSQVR
# T1 sequence (Q8VZS8 whole entry): as the sequence (Q8VZS8 whole entry, stated change not applied) above
# T1 sequence (P49597 whole entry partner): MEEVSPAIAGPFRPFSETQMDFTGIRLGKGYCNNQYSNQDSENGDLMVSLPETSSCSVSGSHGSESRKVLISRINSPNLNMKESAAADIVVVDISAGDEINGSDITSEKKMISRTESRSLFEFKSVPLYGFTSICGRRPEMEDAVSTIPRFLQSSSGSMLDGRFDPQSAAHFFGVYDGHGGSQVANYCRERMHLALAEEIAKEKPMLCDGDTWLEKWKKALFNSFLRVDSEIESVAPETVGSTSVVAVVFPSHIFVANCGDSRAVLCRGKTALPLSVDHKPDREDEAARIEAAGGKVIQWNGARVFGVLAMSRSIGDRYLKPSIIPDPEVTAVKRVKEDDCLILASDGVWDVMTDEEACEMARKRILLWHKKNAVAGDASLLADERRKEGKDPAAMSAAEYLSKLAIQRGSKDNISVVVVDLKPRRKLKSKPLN
# T3 sequence (Q9CAJ0 179-511): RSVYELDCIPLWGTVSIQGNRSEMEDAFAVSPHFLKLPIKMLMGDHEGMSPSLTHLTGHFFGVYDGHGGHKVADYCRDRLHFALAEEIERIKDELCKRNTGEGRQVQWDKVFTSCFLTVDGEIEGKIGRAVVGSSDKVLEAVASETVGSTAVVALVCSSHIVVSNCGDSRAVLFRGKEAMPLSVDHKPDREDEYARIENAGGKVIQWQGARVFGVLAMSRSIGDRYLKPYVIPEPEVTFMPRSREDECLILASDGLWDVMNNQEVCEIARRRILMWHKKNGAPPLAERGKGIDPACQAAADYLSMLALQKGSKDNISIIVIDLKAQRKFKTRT
# T3 sequence (O80920 whole entry): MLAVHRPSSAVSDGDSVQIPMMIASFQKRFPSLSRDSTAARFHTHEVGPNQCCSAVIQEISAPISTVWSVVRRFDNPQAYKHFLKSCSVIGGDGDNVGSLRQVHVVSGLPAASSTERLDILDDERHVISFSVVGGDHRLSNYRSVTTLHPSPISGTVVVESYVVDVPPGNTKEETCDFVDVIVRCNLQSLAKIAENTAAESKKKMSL
# T2 sequence (O49686 whole entry): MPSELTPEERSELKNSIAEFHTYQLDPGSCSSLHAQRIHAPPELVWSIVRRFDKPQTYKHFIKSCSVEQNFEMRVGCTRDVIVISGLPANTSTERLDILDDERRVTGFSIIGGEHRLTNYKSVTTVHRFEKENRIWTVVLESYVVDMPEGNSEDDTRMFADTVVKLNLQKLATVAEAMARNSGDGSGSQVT
# T2 sequence (P49597 whole entry partner): as the sequence (P49597 whole entry partner) above
# Sequence of AtPYL5:ΔNHAB1 (Q9FLB1 whole entry, stated change not applied): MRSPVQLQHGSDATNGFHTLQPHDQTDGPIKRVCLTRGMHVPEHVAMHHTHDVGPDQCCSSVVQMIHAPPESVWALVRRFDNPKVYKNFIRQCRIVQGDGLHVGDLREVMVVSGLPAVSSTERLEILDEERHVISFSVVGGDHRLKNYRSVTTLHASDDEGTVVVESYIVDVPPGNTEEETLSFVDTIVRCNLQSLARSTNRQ
compound,measurement,setting,value
CCCN1C(=O)CCc2cc(NS(=O)(=O)Cc3c(F)c(F)c(C)c(F)c3F)ccc21 [AMF4],effect in pyr1 pyl1 double mutant,[1],lack effect
Cc1cc(=O)n(C)c2ccc(CNS(=O)(=O)c3ccccc3)cc12 [iSB07],IC50,"[2]; WT Col-0, read-out: Germination IC50",12700 nM
same,IC50,"[2]; line expressing CsPYL1, read-out: Germination IC50",4030 nM
same,IC50,"[2]; line expressing CsPYL1^5m, read-out: Germination IC50",943 nM
same,inhibition of root growth,[3]; CsPYL1^5m lines,marked inhibition
same,inhibition of root growth,[3]; WT plants,did not significantly inhibit
same,reduction of stomatal conductance (Gs),"[4]; WT, spraying with 20 μM",not effective
same,reduction of Gs 24 and 48 hours after spraying,"[4]; transgenic lines, 5 μM",nonsignificant
same,leaf temperature by thermal imaging,[5],increased leaf temperature
same,leaf temperature by thermal imaging,[6],increased leaf temperature
same,induction of LUC relative to iSB09,[7],approximately fivefold lower
"CC1=CC(=O)CC(C)(C)[C@@]1(O)/C=C/C(C)=C\C(=O)O [ABA, abscisic acid, reference compound]",IC50 of ABA for CsPYL1^5m compared to WT CsPYL1,AtHAB1ΔN with CsPYL1^5m,fourfold increase
same,IC50,ABI1 with AtPYL1,274 nM
same,IC50,ABI1 with AtPYR1,200 nM
same,IC50,"[2]; read-out: Germination IC50, WT Col-0",216 nM
same,IC50,"[2]; read-out: Germination IC50, line expressing CsPYL1",304 nM
same,IC50,"[2]; read-out: Germination IC50, line expressing CsPYL1^5m",458 nM
same,leaf temperature by thermal imaging,[6],increased leaf temperature
same,Kd,AtPYL5:ΔNHAB1,2100 nM
"CCCN1C(=O)CCc2cc(NS(=O)(=O)Cc3ccc(C)cc3)ccc21 [QB, quinabactin]",IC50,HAB1 with AtPYL4,1880 nM
same,bioactivity in tomato (leaf temperature),tomato plants,lacked bioactivity
same,receptor activation,ΔNHAB1 with AtPYL1,activates AtPYL1
same,receptor activation,ΔNHAB1 with AtPYL10,not AtPYL10
same,effect in pyr1 pyl1 double mutant,[1],lack effect
